Patent US9399072B2, “Methods of treatment of pancreatic cancer” (Abraxis BioScience, LLC, priority 2010, dated 2016)

Assays:
[1] = tested on: gemcitabine-resistant pancreatic cancer; conditions: second-line, small studies; cited from earlier work
[2] = tested on: locally advanced pancreatic cancer; conditions: 126 patients with locally advanced pancreatic cancer; cited from earlier work
[3] = Phase I study of Nab-paclitaxel with vandetanib: MTD, DLT, adverse events; format: in vivo, human
Text: Patients were randomized to one of two cohorts. […] A 3+3 design was used.

pancreatic cancer = conditions: in vivo; cited from earlier work

Q: For `CC(=O)O[C@H]1C(=O)[C@@]2(C)[C@H]([C@H](OC(=O)c3ccccc3)[C@]3(O)C[C@H](OC(=O)[C@H](O)[C@@H](NC(=O)c4ccccc4)c4ccccc4)C(C)=C1C3(C)C)[C@]1(OC(C)=O)CO[C@@H]1C[C@@H]2O` [paclitaxel], which median overall survival [1] is on record?
A: 17.5 weeks

Q: And the response rate [1]?
A: 6%

Q: With `O=c1[nH]cc(F)c(=O)[nH]1` [5-FU, 5-fluororuracil] as the compound, how does the median overall survival [2] read?
A: 4.2 months

Q: And the “median time to disease progression” value [2]?
A: 0.9 months

Q: Which MTD ([3]; cohort A: daily, combined with 100 mg/m^2 Nab-paclitaxel weekly for three out of four weeks) does the source give for `COc1cc2c(Nc3ccc(Br)cc3F)ncnc2cc1OCC1CCN(C)CC1` [vandetanib] here?
A: 300 mg

Q: And the MTD ([3]; cohort B: daily, in combination with 260 mg/m^2 Nab-paclitaxel every three weeks)?
A: 300 mg

Q: For `Nc1ccn([C@@H]2O[C@H](CO)[C@@H](O)C2(F)F)c(=O)n1` [gemcitabine], which median overall survival [2] is on record?
A: 5.7 months

Q: What about the “median time to disease progression” value [2] of the same compound?
A: 2.1 months

Q: What about the median overall survival (pancreatic cancer) of the same compound?
A: 6.0 months

Q: What about the “median progression free survival” value (pancreatic cancer) of the same compound?
A: 3.5 months
